Assay results: patent US20250276127A1, “THERAPEUTIC METHODS AND DEVICES” (NORWEGIAN UNIVERSITY OF SCIENCE AND TECHNOLOGY (NTNU), priority 2021, published 2025)

Legend:
Assay type in all cases: in vivo, human
local blood flow [1] = test: Impact of laser Doppler probe placement on measured local blood flow; conditions: 0.015 mg SC, upper arms
Experimental: The impact of the placement of the laser Doppler probe on the measured effect of glucagon injections on local blood flow was investigated by giving injections at multiple sites with varying distances from the probe. The experiment involved the subcutaneous injection of 0.015 mg of glucagon (in 0.1 ml) or 0.1 ml of 0.9% saline as a control at sites on the lateral sides of the upper arms of the subjects. The injections were given either under the probe, 1.6 cm from the probe centre, 3 cm from the probe centre, or 5 cm from the probe centre. In each case, 6 injections were given, except for 1.6 cm from the probe centre where only 4 saline injections were given. In all cases, half of the injections were given to a subject and half to a subject, except for under the probe, where 4 tests were done on the subject and 2 on the subject. Blood flow was measured on the skin surface by laser Doppler technology.

blood flow in the skin = test: Local skin blood flow by laser Doppler after subcutaneous injection
Excerpt: Likewise, the compound with glucagon activity may be administered in an amount which is effective to achieve a local vasodilatory effect, or an effect of increasing local blood flow at the site of its administration. Vasodilatory activity may be assessed, or determined, by measuring blood flow by a laser Doppler method, at an administration site on or in a human or non-human animal subject after administration of the compound. For example, the compound may be injected SC and blood flow just below the skin surface may be determined at the injection site. Such a method is described in Example 1. However, for the methods and uses herein where the compound is used for its effect in the delivery of a therapeutically active agent (e.g. insulin) or in conjunction with the operation of a sensor (e.g. glucose sensor), it is not necessary, and indeed it may be undesirable, for the compound to exert its usual therapeutic effect of increasing blood glucose, or counteracting an episode of hypoglycaemia. The amount, or dose, administered may thus be less, and indeed typically will be less, than a dose which is administered, or typically used, to treat hypoglycaemia. Doses for the compound are discussed in more detail below.
An experiment was performed on 2 young healthy adult human volunteers. The effect of subcutaneous (hereinafter, SC) injections on blood flow in the skin were tested 6 times in the 2 subjects (4 tests in a subject and 2 tests in a subject). The glucagon was administered by SC injection of 0.1 ml of 1 mg/ml glucagon (i.e. an injection containing 0.1 mg of glucagon) to sites on the lateral side of both upper arms of the subjects. Blood flow was measured on the skin surface at the site of administration by laser Doppler technology. As a control the same volume of physiological saline (0.9%) was injected as a placebo at the same sites.
This effect was further investigated in a similar experiment with varying doses of glucagon. Again, the same 2 subjects were used, and SC injections of glucagon or placebo were given 6 times (4 tests in a subject and 2 tests in a subject). The glucagon was administered to sites on the lateral sides of both upper arms in amounts of 0.1 mg, 0.015 mg and 0.01 mg (0.1 ml of glucagon at concentrations of 0.1 mg/ml, 0.015 mg/ml and 0.01 mg/ml, respectively). Blood flow was measured on the skin surface at the site of administration by laser Doppler technology. As a control the same volume of physiological saline (0.9%) was injected as a placebo at the same sites.
Further experiments were conducted to investigate the effect on local blood flow of subcutaneous injections of glucagon in the abdomen. Again, 2 subjects were used, and SC injections of glucagon or placebo were given 6 times (3 tests in a subject and 3 tests in a subject). The glucagon was administered by SC injection of 0.1 ml of 1 mg/ml glucagon (i.e. an injection containing 0.1 mg of glucagon) to sites on both sides of the abdomen of the subjects. Blood flow was measured on the skin surface at the site of administration by laser Doppler technology. As a control the same volume of physiological saline (0.9%) was injected as a placebo at the same sites.
This effect was further investigated in a similar experiment with varying doses of glucagon. Again, 2 subjects were used, and SC injections of glucagon or placebo were given 6 times (3 tests in a subject and 3 tests in a subject). The glucagon was administered to sites on both sides of the abdomen in amounts of 0.1 mg, 0.05 mg and 0.015 mg (0.1 ml of glucagon at concentrations of 0.1 mg/ml, 0.05 mg/ml and 0.015 mg/ml, respectively). Blood flow was measured on the skin surface at the site of administration by laser Doppler technology. As a control the same volume of physiological saline (0.9%) was injected as a placebo at the same sites. […]

[2] = tested on: glucose levels detected by CGM; test: CGM (Dexcom G6) glucose sensing at meals with injection at the sensor site; conditions: FIG. 26
Experimental: This effect was further investigated in a similar experiment to investigate the effect of glucagon on the performance of CGMs. Again, 2 subjects were used showing data from 12 meals in a non-diabetic […] and 11 meals in a non-diabetic […] collected with Dexcom G6 CGMs. The subjects wore two CGMs placed symmetrically on the lateral side of each overarm. 1-3 minutes before the start of ingesting the meal 0.1 ml of glucagon (1 mg/ml) was injected at the site of one CGM and 0.1 ml of placebo (saline (0.9%) on the contralateral site of CGM. Before each meal, the site of glucagon delivery was decided by a new randomization.

local blood flow [3] = test: Impact of injection technique (speed) on local blood flow, laser Doppler; conditions: abdomen
Experimental: To observe the impact of injection technique, and particularly speed of injection, on the effect induced by subcutaneous injection of glucagon, an experiment was conducted to compare 2 different injection techniques; one where the injection lasted 1-3 seconds (technique 1), and one where the injection lasted at least 10 seconds (technique 2). 6 injections were given with technique 1 and 4 injections were given with technique 2. In each case, 0.1 mg of glucagon (in a 0.1 ml injection) was injected subcutaneously into the abdomen of the subjects. For each technique, half of the injections were given to a subject and half to a subject. Blood flow was measured on the skin surface at the site of administration by laser Doppler technology.
In addition, in FIG. 21 the same results are shown together with the results of placebo injections of 0.1 ml of 0.9% saline using the same 2 techniques. For technique 1, 6 placebo injections were given, and for technique 2, 2 placebo injections were given. Again, half of the injections with each technique were done in a subject, and half were done in a subject.

## glucagon
Local blood flow [1]; injection 1.6 cm or 3 cm from probe centre
  effect on blood flow versus placebo: larger than placebo
Local blood flow [1]; injection 5 cm from probe centre
  effect on blood flow versus placebo: except for injection 5 cm from the probe the effect was larger than placebo
Local blood flow [1]; injection at greater distances (1.6, 3 or 5 cm from probe centre)
  increase in local blood flow, placebo subtracted: less significant
Local blood flow [1]; injection directly under the probe, FIG. 25
  increase in local blood flow, placebo subtracted: largest increase in local blood flow
Blood flow in the skin; 0.01 mg SC, lateral upper arms, FIG. 15
  increase in local blood flow relative to higher doses: similar, although less pronounced
Blood flow in the skin; 0.01 mg SC, thighs, FIG. 23/24
  effect on local blood flow relative to control injection: did not appear to have a significant effect on local blood flow
Blood flow in the skin; 0.015 mg SC, abdomen, FIG. 18/19
  effect on local blood flow relative to control injection: did not appear to have a significant effect on local blood flow
Blood flow in the skin; 0.015 mg SC, lateral upper arms, average of 6 tests, FIG. 15
  increase in local blood flow: 400-450 % of the baseline reading
Blood flow in the skin; 0.03 mg SC, thighs, FIG. 23/24
  increase in local blood flow among doses: biggest increase in local blood flow
Blood flow in the skin; 0.05 mg SC, abdomen, FIG. 18/19
  initial increase in local blood flow: did not result in a significant increase in local blood flow initially
Blood flow in the skin; 0.05 mg SC, abdomen, after 15 minutes
  local blood flow versus control injection after 15 minutes: higher than that observed at the same time after the control injection
Blood flow in the skin; 0.05 mg SC, thighs, FIG. 22
  persistence of increase in local blood flow versus control: more persistent than that observed following administration of the control
  time after which blood flow values of glucagon and placebo were approximately equal: around 30 minutes
Blood flow in the skin; 0.05 mg SC, thighs, FIG. 23/24
  increase in local blood flow versus saline control: slightly larger than that observed following administration of the saline control
  persistence of increase in local blood flow versus saline control: significantly more persistent
Blood flow in the skin; 0.05 mg SC, thighs, average of 7 tests, FIG. 22
  increase in local blood flow versus saline: slightly greater than that observed when saline was administered
Blood flow in the skin; 0.1 mg SC, abdomen, FIG. 17
  persistence of increase in local blood flow versus control: more persistent than that observed following administration of the control
  time after which blood flow values of glucagon and placebo were approximately equal: around 30 minutes
Blood flow in the skin; 0.1 mg SC, abdomen, FIG. 18/19
  initial increase in local blood flow versus control: greater than that seen following the administration of the same control
Blood flow in the skin; 0.1 mg SC, abdomen, average of 6 tests, FIG. 17
  increase in local blood flow versus saline: slightly greater than that observed when saline was administered
Blood flow in the skin; 0.1 mg SC, lateral upper arms, FIG. 14
  blood flow after returning to "normal" versus before injection: increased compared to before the glucagon injection
Blood flow in the skin; 0.1 mg SC, lateral upper arms, average of 6 tests, FIG. 14
  effect on local blood flow (flow increase): several hundred percent
Blood flow in the skin; 0.1 mg SC, lateral upper arms, average of 6 tests, FIG. 15
  increase in local blood flow: 400-450 % of the baseline reading
Blood flow in the skin; SC, upper arms, FIG. 15
  period over which the vasodilatory effect can be seen: 35 to 40 min
Blood flow in the skin; administered sub-cutaneously, small blood vessels in the skin (summary statement)
  increase of blood flow at the site of administration: several hundred percent
Blood flow in the skin; all doses (0.1, 0.015, 0.01 mg) SC, upper arms, not seen with placebo
  persistence of increase in blood flow: found to persist even once the value had stabilised
Blood flow in the skin; in certain body regions, in some subjects
  dose at which a vasodilatory effect has been observed: < 0.01 mg
Blood flow in the skin; summary of the Examples
  change in local blood flow on administration: immediate and large increase in local blood flow
Blood flow in the skin; summary of the Examples, maintained over a prolonged period
  level to which blood flow returns: higher than the baseline level before glucagon administration
[2]; 0.1 ml of 1 mg/ml injected at CGM site 1-3 minutes before meal, overarm, 23 meals
  glucose levels detected by CGM after meal versus placebo site: faster and larger increase in glucose levels detected compared to placebo
[2]; in one of the subjects
  time at which the effect on CGM glucose can be clearly seen: 10 min
Local blood flow [3]; 0.1 mg SC, technique 2, versus fast glucagon and placebo injections
  persistence of effect of the "slow" injection on local blood flow: more persistent than the effects of any of the other injections
Local blood flow [3]; 0.1 mg in 0.1 ml SC, FIG. 20/21
  increase in local blood flow, technique 2 (injection at least 10 seconds) versus technique 1 (1-3 seconds): significantly larger increase in local blood flow
